Data as given in US12473304B2, “Heterocyclic PAD4 inhibitors” (BRISTOL-MYERS SQUIBB COMPANY, priority 2020, dated 2025).

Biological target: human PAD4 (hPAD4) (Homo sapiens (Human), UniProt Q9UM07)
Assay: RFMS Human PAD4 Functional Assay 1
Format: biochemical
Details: RFMS assay 1; 5 nM hPAD4, 250 μM BAEE substrate, 50 μM calcium, 37° C.
Outline: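 Recombinant hPAD4 (5 nM) was preincubated with compound (top 50 μM, 0.5% DMSO) for 30 min at 37 °C, then reacted with 250 μM BAEE for 90 min at 37 °C in pH 7.5 HEPES buffer with 50 μM calcium and 5 μM TPEN. Product was derivatized with phenyl glyoxal and quantified by RapidFire MS.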

human PAD4 (hPAD4), sequence (Q9UM07 whole entry): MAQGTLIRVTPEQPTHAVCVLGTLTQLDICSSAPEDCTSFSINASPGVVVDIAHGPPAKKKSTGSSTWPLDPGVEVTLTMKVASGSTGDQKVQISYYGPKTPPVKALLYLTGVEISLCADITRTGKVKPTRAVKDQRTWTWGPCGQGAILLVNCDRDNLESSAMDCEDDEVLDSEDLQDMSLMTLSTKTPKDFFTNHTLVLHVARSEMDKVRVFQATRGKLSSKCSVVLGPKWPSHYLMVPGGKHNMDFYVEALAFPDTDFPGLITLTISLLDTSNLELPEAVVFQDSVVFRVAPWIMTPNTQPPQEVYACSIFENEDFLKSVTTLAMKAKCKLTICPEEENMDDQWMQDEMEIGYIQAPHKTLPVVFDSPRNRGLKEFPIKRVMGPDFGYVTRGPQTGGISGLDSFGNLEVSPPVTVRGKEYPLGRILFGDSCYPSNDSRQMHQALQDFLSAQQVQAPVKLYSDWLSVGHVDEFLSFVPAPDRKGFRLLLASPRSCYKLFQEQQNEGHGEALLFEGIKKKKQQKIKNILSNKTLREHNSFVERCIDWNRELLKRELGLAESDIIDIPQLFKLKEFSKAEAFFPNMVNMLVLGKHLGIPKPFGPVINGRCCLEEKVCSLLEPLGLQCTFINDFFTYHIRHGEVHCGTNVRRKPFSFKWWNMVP

Row | Structure (SMILES) | IC50 [nM]
1 | Cc1c(-c2cc3ccc(-c4ccc5[nH]ccc5c4)cc3n2CC2CC2)nn2cc(C(=O)N3CCC[C@@H](N)C3)ccc12 [Example 345, (3R)-1-{2-[1′-(Cyclopropylmethyl)-1H,1′H-[5,6′-biindole]-2′-yl]-3-methylpyrazolo[1,5-a]pyridine-6-carbonyl}piperidin-3-amine] | 790
2 | Cc1c(-c2ccc3cc(-c4nn5cc(C(=O)N6CCC[C@@H](N)C6)ccc5c4C)n(CC4CC4)c3c2)cc(F)c2[nH]c(=O)ccc12 [Example 346, 6-(2-{6-[(3R)-3-Aminopiperidine-1-carbonyl]-3-methylpyrazolo[1,5-a]pyridin-2-yl}-1-(cyclopropylmethyl)-1H-indol-6-yl)-8-fluoro-5-methyl-1,2-dihydroquinolin-2-one] | 60
3 | Cc1c(-c2cc3ccc(-c4ccc(NS(C)(=O)=O)cc4)cc3n2CC2CC2)nn2cc(C(=O)N3CCC[C@@H](N)C3)ccc12 [Example 347, N-[4-(2-{6-[(3R)-3-Aminopiperidine-1-carbonyl]-3-methylpyrazolo[1,5-a]pyridin-2-yl}-1-(cyclopropylmethyl)-1H-indol-6-yl)phenyl]methanesulfonamide] | 290
4 | CC(=O)Nc1ccc(-c2ccc3cc(-c4nn5cc(C(=O)N6CCC[C@@H](N)C6)ccc5c4C)n(CC4CC4)c3c2)cn1 [Example 348, N-[5-(2-{6-[(3R)-3-Aminopiperidine-1-carbonyl]-3-methylpyrazolo[1,5-a]pyridin-2-yl}-1-(cyclopropylmethyl)-1H-indol-6-yl)pyridin-2-yl]acetamide] | 140
5 | Cc1c(-c2cc3ccc(-c4ccn5c(C)nnc5c4)cc3n2CC2CC2)nn2cc(C(=O)N3CCC[C@@H](N)C3)ccc12 [Example 349, (R)-(3-Aminopiperidin-1-yl)(2-(1-(cyclopropylmethyl)-6-(3-methyl-[1,2,4]triazolo[4,3-a]pyridin-7-yl)-1H-indol-2-yl)-3-methylpyrazolo[1,5-a]pyridin-6-yl)methanone] | 100
6 | Cc1c(-c2cc3ccc(N4CCOCC4)cc3n2CC2CC2)nn2cc(C(=O)N3CC4CCC3[C@@H]4N)ccc12 (stereo partly drawn) [Example 350, (7R)-2-{2-[1-(Cyclopropylmethyl)-6-(morpholin-4-yl)-1H-indol-2-yl]-3-methylpyrazolo[1,5-a]pyridine-6-carbonyl}-2-azabicyclo[2.2.1]heptan-7-amine] | 30
7 | Cc1c(-c2cc3ccc(N4CCC(S(C)(=O)=O)CC4)cc3n2CC2CC2)nn2cc(C(=O)N3CC4CCC3[C@@H]4N)ccc12 (stereo partly drawn) [Example 351, (7R)-2-{2-[1-(Cyclopropylmethyl)-6-(4-methanesulfonylpiperidin-1-yl)-1H-indol-2-yl]-3-methylpyrazolo[1,5-a]pyridine-6-carbonyl}-2-azabicyclo[2.2.1]heptan-7-amine] | 100
8 | COC(=O)N(C)C1CCN(c2ccc3cc(-c4nn5cc(C(=O)N6C[C@H](N)C[C@@H](F)C6)ccc5c4C)n(CC4CC4)c3c2)CC1 [Example 352, Methyl N-[1-(2-{6-[(3R,5R)-3-amino-5-fluoropiperidine-1-carbonyl]-3-methylpyrazolo[1,5-a]pyridin-2-yl}-1-(cyclopropylmethyl)-1H-indol-6-yl)piperidin-4-yl]-N-methylcarbamate] | 810
9 | CC(=O)N(C)C1CCN(c2ccc3cc(-c4nn5cc(C(=O)N6C[C@H](N)C[C@@H](F)C6)ccc5c4C)n(CC4CC4)c3c2)CC1 [Example 353, N-[1-(2-{6-[(3R,5R)-3-Amino-5-fluoropiperidine-1-carbonyl]-3-methylpyrazolo[1,5-a]pyridin-2-yl}-1-(cyclopropylmethyl)-1H-indol-6-yl)piperidin-4-yl]-N-methylacetamide] | 610
10 | Cc1c(-c2cc3ccc(N4CCC(N(C)S(C)(=O)=O)CC4)cc3n2CC2CC2)nn2cc(C(=O)N3C[C@H](N)C[C@@H](F)C3)ccc12 [Example 354, N-[1-(2-{6-[(3R,5R)-3-Amino-5-fluoropiperidine-1-carbonyl]-3-methylpyrazolo[1,5-a]pyridin-2-yl}-1-(cyclopropylmethyl)-1H-indol-6-yl)piperidin-4-yl]-N-methylmethanesulfonamide] | 150
11 | Cc1c(-c2cc3ccc(N4CCC(C(=O)N5CCCC5)CC4)cc3n2CC2CC2)nn2cc(C(=O)N3C[C@H](N)C[C@@H](F)C3)ccc12 [Example 355, (3R,5R)-1-{2-[1-(Cyclopropylmethyl)-6-[4-(pyrrolidine-1-carbonyl)piperidin-1-yl]-1H-indol-2-yl]-3-methylpyrazolo[1,5-a]pyridine-6-carbonyl}-5-fluoropiperidin-3-amine] | 20
12 | Cc1c(-c2cc3ccc(N4CCC(N5CCCC5=O)CC4)cc3n2CC2CC2)nn2cc(C(=O)N3C[C@H](N)C[C@@H](F)C3)ccc12 [Example 356, 1-[1-(2-{6-[(3R,5R)-3-Amino-5-fluoropiperidine-1-carbonyl]-3-methylpyrazolo[1,5-a]pyridin-2-yl}-1-(cyclopropylmethyl)-1H-indol-6-yl)piperidin-4-yl]pyrrolidin-2-one] | 2780
13 | Cc1c(-c2cc3ccc(N4CCC(N5CCOC5=O)CC4)cc3n2CC2CC2)nn2cc(C(=O)N3C[C@H](N)C[C@@H](F)C3)ccc12 [Example 357, 3-[1-(2-{6-[(3R,5R)-3-Amino-5-fluoropiperidine-1-carbonyl]-3-methylpyrazolo[1,5-a]pyridin-2-yl}-1-(cyclopropylmethyl)-1H-indol-6-yl)piperidin-4-yl]-l,3-oxazolidin-2-one] | 50
14 | COC(=O)N(C)C1CCN(c2ccc3cc(-c4nn5cc(C(=O)N6CCC[C@@H](N)C6)ccc5c4C)n(CC4CC4)c3c2)CC1 [Example 358, Methyl N-[1-(2-{6-[(3R)-3-aminopiperidine-1-carbonyl]-3-methylpyrazolo[1,5-a]pyridin-2-yl}-1-(cyclopropylmethyl)-1H-indol-6-yl)piperidin-4-yl]-N-methylcarbamate] | 420
15 | CC(=O)N(C)C1CCN(c2ccc3cc(-c4nn5cc(C(=O)N6CCC[C@@H](N)C6)ccc5c4C)n(CC4CC4)c3c2)CC1 [Example 359, N-[1-(2-{6-[(3R)-3-Aminopiperidine-1-carbonyl]-3-methylpyrazolo[1,5-a]pyridin-2-yl}-1-(cyclopropylmethyl)-1H-indol-6-yl)piperidin-4-yl]-N-methyl acetamide] | 240
16 | Cc1c(-c2cc3ccc(N4CCC(N(C)S(C)(=O)=O)CC4)cc3n2CC2CC2)nn2cc(C(=O)N3CCC[C@@H](N)C3)ccc12 [Example 360, N-[1-(2-{6-[(3R)-3-Aminopiperidine-1-carbonyl]-3-methylpyrazolo[1,5-a]pyridin-2-yl}-1-(cyclopropylmethyl)-1H-indol-6-yl)piperidin-4-yl]-N-methylmethanesulfonamide] | 450
17 | Cc1c(-c2cc3ccc(N4CCC(C(=O)N5CCCC5)CC4)cc3n2CC2CC2)nn2cc(C(=O)N3CCC[C@@H](N)C3)ccc12 [Example 361, (3R)-1-{2-[1-(Cyclopropylmethyl)-6-[4-(pyrrolidine-1-carbonyl)piperidin-1-yl]-1H-indol-2-yl]-3-methylpyrazolo[1,5-a]pyridine-6-carbonyl}piperidin-3-amine] | 300
18 | Cc1c(-c2cc3ccc(N4CCC(N(C)S(C)(=O)=O)CC4)cc3n2CC2CC2)nn2cc(C(=O)N3CCC[C@@H](N)C3)ccc12 [Example 362, N-[1-(2-{6-[(3R)-3-Aminopiperidine-1-carbonyl]-3-methylpyrazolo[1,5-a]pyridin-2-yl}-1-(cyclopropylmethyl)-1H-indol-6-yl)piperidin-4-yl]-N-methylmethanesulfonamide] | 430
19 | Cc1c(-c2cc3ccc(N4CCC(N5CCCC5=O)CC4)cc3n2CC2CC2)nn2cc(C(=O)N3CCC[C@@H](N)C3)ccc12 [Example 363, 1-[1-(2-{6-[(3R)-3-Aminopiperidine-1-carbonyl]-3-methylpyrazolo[1,5-a]pyridin-2-yl}-1-(cyclopropylmethyl)-1H-indol-6-yl)piperidin-4-yl]pyrrolidin-2-one] | 2280
20 | Cc1c(-c2cc3ccc(N4CCC(N5CCOC5=O)CC4)cc3n2CC2CC2)nn2cc(C(=O)N3CCC[C@@H](N)C3)ccc12 [Example 364, 3-[1-(2-{6-[(3R)-3-Aminopiperidine-1-carbonyl]-3-methylpyrazolo[1,5-a]pyridin-2-yl}-1-(cyclopropylmethyl)-1H-indol-6-yl)piperidin-4-yl]-1,3-oxazolidin-2-one] | 1090
21 | Cc1c(-c2cc3ccc(N4CCC(n5cccn5)CC4)cc3n2CC2CC2)nn2cc(C(=O)N3CCC[C@@H](N)C3)ccc12 [Example 365, (3R)-1-{2-[1-(Cyclopropylmethyl)-6-[4-(1H-pyrazol-1-yl)piperidin-1-yl]-1H-indol-2-yl]-3-methylpyrazolo[1,5-a]pyridine-6-carbonyl}piperidin-3-amine] | 720
22 | Cc1c(-c2cc3ccc(N4CC(N(C)S(C)(=O)=O)C4)cc3n2CC2CC2)nn2cc(C(=O)N3CCC[C@@H](N)C3)ccc12 [Example 366, N-[1-(2-{6-[(3R)-3-Aminopiperidine-1-carbonyl]-3-methylpyrazolo[1,5-a]pyridin-2-yl}-1-(cyclopropylmethyl)-1H-indol-6-yl)azetidin-3-yl]-N-methylmethanesulfonamide] | 870
23 | Cc1c(-c2cc3ccc(-c4cccc(CNS(C)(=O)=O)c4)cc3n2CC2CC2)nn2cc(C(=O)N3C[C@H](N)C[C@@H](F)C3)ccc12 [Example 367, N-{[3-(2-{6-[(3R,5R)-3-Amino-5-fluoropiperidine-1-carbonyl]-3-methylpyrazolo[1,5-a]pyridin-2-yl}-1-(cyclopropylmethyl)-1H-indol-6-yl)phenyl]methyl}methanesulfonamide] | 1000
24 | Cc1c(-c2cc3ccc(-c4cccc(-c5nn[nH]n5)c4)cc3n2CC2CC2)nn2cc(C(=O)N3C[C@H](N)C[C@@H](F)C3)ccc12 [Example 368, (3R,5R)-1-{2-[1-(Cyclopropylmethyl)-6-[3-(2H-1,2,3,4-tetrazol-5-yl)phenyl]-1H-indol-2-yl]-3-methylpyrazolo[1,5-a]pyridine-6-carbonyl}-5-fluoropiperidin-3-amine] | 2800
